{"source": "PubChem BioAssay (NCI)", "test_system": "MDA-MB-468 breast", "assay": "inhibition of tumour cell growth, NCI panel, 48 h", "note": "“And” between values parts separate entries of the source, which are not always exact repeats. Equal entries are not always repeated.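 Five compound concentrations were applied to cells in 96-well plates for 48 hours; endpoints were derived by simple linear interpolation of the resulting dose-response curve. Abbreviation: GI50, concentration required for 50% inhibition of growth. TGI: total growth inhibition.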 Where a SMILES comes first, the peptide text is derived from it."}
{"molecule": "C#CC#CC#CC#CC#CC#CC#CC#CC[C@@H]1OC[C@H](COC(=O)O[C@@H](C(=O)O[C@H]2C[C@@]3(O)[C@@H](OC(=O)c4ccccc4)[C@@H]4[C@]5(OC(C)=O)CO[C@@H]5C[C@H](O)[C@@]4(C)C(=O)[C@H](OC(C)=O)C(=C2C)C3(C)C)[C@@H](NC(=O)c2ccccc2)c2ccccc2)O1", "values": [{"measurement": "GI50", "result": 439, "unit": "nM"}, {"measurement": "TGI", "result": 1590, "unit": "nM"}]}
{"molecule": "CCOc1ccccc1C(=O)/C=C/c1cc2ccccc2[nH]c1=O", "values": [{"measurement": "GI50", "result": 162, "unit": "nM"}, {"measurement": "TGI", "result": 1630, "unit": "nM"}]}
{"molecule": "CCNC(=O)N1CCc2c(Cl)c3c(c(OC)c2[C@@H]1[C@H]1OCc2c1ccc(OC)c2OC)OCCO3", "values": [{"measurement": "GI50", "result": 2650, "unit": "nM"}, {"measurement": "TGI", "result": "> 100000", "unit": "nM"}]}
{"molecule": "Fc1ccc(-c2ncn(C3CCNCC3)c2-c2ccnc(Oc3cccc(C(F)(F)F)c3)n2)cc1", "values": [{"measurement": "GI50", "result": 1570, "unit": "nM"}, {"measurement": "TGI", "result": 5310, "unit": "nM"}]}
{"molecule": "O=C1C=CC2(NN=C(c3ccccc3)N2c2ccccc2)c2cccc(O)c21", "note": "(stereo not given)", "values": [{"measurement": "GI50", "result": 1920, "unit": "nM"}, {"measurement": "TGI", "result": 9090, "unit": "nM"}]}
{"molecule": "O=C1NC(=NCc2c(Cl)cccc2Cl)S/C1=C\\c1ccc2ncccc2c1", "values": [{"measurement": "GI50", "result": 6240, "unit": "nM"}, {"measurement": "TGI", "result": "> 25000", "unit": "nM"}]}
{"molecule": "COc1ccc2nc3c(n2c1)C(=O)C(=O)c1ccccc1-3", "values": [{"measurement": "GI50", "result": 2180, "unit": "nM"}, {"measurement": "TGI", "result": 5630, "unit": "nM"}]}
{"molecule": "COc1cc(-c2cc(-c3nc4ccc(F)cc4[nH]3)[nH]n2)cc(OC)c1OC", "values": [{"measurement": "GI50", "result": 1560, "unit": "nM"}, {"measurement": "TGI", "result": 9670, "unit": "nM"}]}
{"molecule": "Cn1cc(-c2csc(-c3c[nH]c4ccccc34)n2)c2cccnc21", "values": [{"measurement": "GI50", "result": 915, "unit": "nM"}, {"measurement": "TGI", "result": 4180, "unit": "nM"}]}
{"molecule": "COc1ccc(/C=C/C(=O)Nc2cc(/C=C\\c3cc(OC)c(OC)c(OC)c3)cc(OC)c2OC)cc1OC", "values": [{"measurement": "GI50", "result": 1740, "unit": "nM"}, {"measurement": "TGI", "result": 7520, "unit": "nM"}]}
{"molecule": "CCCCCCC(O)(c1ccc(F)cc1)C(CN1CCOCC1)c1ccccc1", "note": "(stereo not given)", "values": [{"measurement": "GI50", "result": 4930, "unit": "nM"}, {"measurement": "TGI", "result": 18600, "unit": "nM"}]}
{"molecule": "CC(=O)/C(=C\\c1c(-c2ccccc2)[nH]c2ccccc12)S(C)(=O)=O", "values": [{"measurement": "GI50", "result": 1790, "unit": "nM"}, {"measurement": "TGI", "result": 8100, "unit": "nM"}]}
{"molecule": "C#CC(F)(F)[C@]1(O)CC[C@H]2[C@@H]3CCC4=CC(=O)CCC4=C3[C@@H](c3ccc(C4CC4)cc3)C[C@@]21C", "values": [{"measurement": "GI50", "result": "121 nM and 265 nM"}, {"measurement": "TGI", "result": "438 nM and 1520 nM"}]}
{"molecule": "COc1ccc(CCc2nc3cc(-c4c(C)noc4C)ccc3n2CCN2CCOCC2)cc1", "values": [{"measurement": "GI50", "result": 8780, "unit": "nM"}, {"measurement": "TGI", "result": "> 100000", "unit": "nM"}]}
{"molecule": "COc1ccc(C(O)c2cc3c(N)c(C(=O)Nc4ccccc4)sc3nc2C)cc1", "note": "(stereo not given)", "values": [{"measurement": "GI50", "result": 29.8, "unit": "nM"}, {"measurement": "TGI", "result": "> 100000", "unit": "nM"}]}
{"molecule": "Cn1cc(-c2nc(N)nnc2-c2c[nH]c3ccccc23)c2cc(Br)ccc21", "values": [{"measurement": "GI50", "result": 342, "unit": "nM"}, {"measurement": "TGI", "result": 2040, "unit": "nM"}]}
{"molecule": "Cc1cccc(-n2cnc3cc(C(=O)N4CCCCC4)ccc32)c1", "values": [{"measurement": "GI50", "result": 18600, "unit": "nM"}, {"measurement": "TGI", "result": "> 100000", "unit": "nM"}]}
{"molecule": "CCCCCCCCn1ccc2cc(NC(=O)Cn3cc(CN4CCN(CC)CC4)nn3)ccc21", "values": [{"measurement": "GI50", "result": 1530, "unit": "nM"}, {"measurement": "TGI", "result": 3040, "unit": "nM"}]}
{"molecule": "COC(=O)[C@]12CC[C@@H](C)[C@H](C)[C@@H]1C1=CC[C@@H]3[C@@]4(C)C[C@@H](OC(C)=O)[C@H](O)[C@@](C)(CO)[C@@H]4[C@H](O)C[C@@]3(C)[C@]1(C)CC2", "values": [{"measurement": "GI50", "result": 8550, "unit": "nM"}, {"measurement": "TGI", "result": 22800, "unit": "nM"}]}
{"molecule": "CCC(C)C1NC(=O)C(CCCCN)NC(=O)C(CCCCN)NC(=O)C(CC(C)C)NC(=O)C(CCCCN)NC(=O)C(C(C)CC)NC(=O)C(C(C)C)NC(=O)C(C(C)CC)NC(=O)C(CCCCN)NC(=O)C(CCCCN)NC(=O)C(C)NC(=O)C(CCCCN)NC(=O)C(CC(C)C)NC1=O", "note": "(stereo not given) (cyclo(AKKIVIKLKKILK); configuration not given here)", "values": [{"measurement": "GI50", "result": 564, "unit": "nM"}, {"measurement": "TGI", "result": 2300, "unit": "nM"}]}
{"molecule": "O=S(=O)(Nc1ccc2ccccc2c1)N1CCCCC1", "values": [{"measurement": "GI50", "result": 2810, "unit": "nM"}, {"measurement": "TGI", "result": 10300, "unit": "nM"}]}
{"molecule": "O=S(=O)(Nc1cc(F)cc(F)c1)c1ccc(-c2cnc(C3CC3)o2)cc1", "values": [{"measurement": "GI50", "result": 1370, "unit": "nM"}, {"measurement": "TGI", "result": 17900, "unit": "nM"}]}
{"molecule": "COc1ccc(/C=C(/C(=O)N2CCCCC2)c2cc(OC)c(OC)c(OC)c2)cc1", "values": [{"measurement": "GI50", "result": 498, "unit": "nM"}, {"measurement": "TGI", "result": "> 100000", "unit": "nM"}]}
{"molecule": "CC(C)(C(=O)NCC(F)(F)C(F)(F)F)C(=O)N[C@@H]1C(=O)Nc2ccccc2-c2ccccc21", "values": [{"measurement": "GI50", "result": 12700, "unit": "nM"}, {"measurement": "TGI", "result": 73000, "unit": "nM"}]}
{"molecule": "Cn1cc(C2=C(n3ccc4ccccc43)C(=O)NC2=O)c2ccccc21", "values": [{"measurement": "GI50", "result": "> 25000", "unit": "nM"}, {"measurement": "TGI", "result": "> 25000", "unit": "nM"}]}
{"molecule": "CCCCCCCCCCCCCCCC(=O)Nc1ccn([C@@H]2O[C@H](CO)[C@@H](O)[C@@H]2C#N)c(=O)n1", "values": [{"measurement": "GI50", "result": 48700, "unit": "nM"}, {"measurement": "TGI", "result": "> 100000", "unit": "nM"}]}
{"molecule": "COc1cc2nccc(Oc3ccc(NC(=O)C4(C(=O)Nc5ccc(F)cc5)CC4)cc3)c2cc1OC(=O)c1ccc(N)cc1", "values": [{"measurement": "GI50", "result": 3990, "unit": "nM"}, {"measurement": "TGI", "result": "> 100000", "unit": "nM"}]}
{"molecule": "O=Cc1cn(Cc2ccccc2)c2ccccc12", "values": [{"measurement": "GI50", "result": 174, "unit": "nM"}, {"measurement": "TGI", "result": 469, "unit": "nM"}]}
{"molecule": "CCCCCN1C(=O)/C(=c2\\sc3n(c2=O)C2C(NN=3)N(CC)C(=O)N2CC)c2ccccc21", "note": "(stereo not given)", "values": [{"measurement": "GI50", "result": 369, "unit": "nM"}, {"measurement": "TGI", "result": 2000, "unit": "nM"}]}
{"molecule": "O=C(Nc1ccccc1C(=O)N/N=C(\\c1ccccc1)c1ccccn1)c1ccccc1", "values": [{"measurement": "GI50", "result": 338, "unit": "nM"}, {"measurement": "TGI", "result": 2380, "unit": "nM"}]}
{"molecule": "COC(=O)N[C@H]1C=C[C@@H]2/C=C(C)/C=C/[C@@H](C)[C@H]([C@H](C)[C@H](O)[C@@H](C)NC(C)=O)OC(=O)/C=C/C=C(C)\\C=C\\[C@]2(C)C1", "values": [{"measurement": "GI50", "result": "4.32 nM and 4.53 nM"}, {"measurement": "TGI", "result": "> 45300", "unit": "nM"}]}
{"molecule": "NS(=O)(=O)c1ccc(N=Nc2c(O)[nH]c3ccc(Cl)cc23)cc1", "values": [{"measurement": "GI50", "result": "> 20100", "unit": "nM"}, {"measurement": "TGI", "result": "> 25000", "unit": "nM"}]}
{"molecule": "CCNCCNc1cc(-c2ccc(Cl)c(Cl)c2)c(C#N)c2nc3ccccc3n12", "values": [{"measurement": "GI50", "result": 1140, "unit": "nM"}, {"measurement": "TGI", "result": 2520, "unit": "nM"}]}
{"molecule": "C#CCNCCCN1C(=O)c2ccc3c4c(ccc(c24)C1=O)C(=O)N(CCCNCC#C)C3=O", "values": [{"measurement": "GI50", "result": 129, "unit": "nM"}, {"measurement": "TGI", "result": 308, "unit": "nM"}]}
{"molecule": "C=C(C)[C@@H]1CC[C@]2(C(N)=O)CC[C@]3(C)[C@H](CC[C@@H]4[C@@]5(C)C/C(=C/c6cccnc6)C(=O)C(C)(C)[C@@H]5CC[C@]43C)[C@@H]12", "values": [{"measurement": "GI50", "result": 3500, "unit": "nM"}, {"measurement": "TGI", "result": 40500, "unit": "nM"}]}
